Experimental data: patent publication US5075318A, “8α-acylaminoergoline, its preparation and pharmaceutical compositions containing it” (Sandoz Ltd., priority 1987, dated 1991)
pIC50: −log10 of the molar value. Read-outs that look alike come from different tables or passages of the source.

Tests used:
[1] = tested on: apomorphine induced gnawing; assay: Inhibition of apomorphine induced gnawing in the rat; assay type: in vivo, rat (Sprague-Dawley); details: po, apomorphine hydrochloride 2.0 mg/kg i.v., read-out: threshold dose (100% inhibition of apomorphine induced gnawing)
Description: The compound of formula I inhibits apomorphine induced gnawing in the rat in a method based on that of P.A. Janssen et al., Arzneim.-Forsch. (Drug Res.) 10, 1003-1005 (1960):
Groups of 3-6 rats (males and females, 90-160 g, Sprague-Dawley, Suddeutsche Tierfarm, Tuttlingen, West Germany) are treated with the test-drug orally and after a pre-determined time further treated with 2.0 mg/kg i.v. apomorphine hydrochloride in aq. solution. They are then placed in individual cages lined with corrugated paper. At times 10, 20 and 30 minutes after the apomorphine each rat is observed for 1 minute. If gnawing occurred during an observation period, that observation is scored as positive. Thus, three scores are obtained from each rat. The supra-maximal dose of apomorphine invariably produces gnawing in all controls at all observation times. Out of the total number of observations per treatment group, the number of positives is noted. The dose of drug which causes a 100% inhibition of the apomorphine induced gnawing is taken as the threshold dose. After a pretreatment time of 3 hours the threshold dose for the compound of formula I is 0.2 mg/kg p.o., after a pretreatment time of 6 hours also 0.2 mg/kg p.o.

[2] = Non-toxic dose level in the dog after 4 week treatment; details: in vivo, po, after a 4 week treatment
Description: (§1) The compound of formula I is well tolerated in mice up to 100 mg/kg p.o. The non-toxic dose level in the dog after a 4 week treatment is 3 mg/kg/day p.o.

[3] = Tolerability in mice; details: mouse, in vivo, po, well tolerated up to, read-out: well tolerated dose
Description: as §1

[4] = molecular target: T1, D-1 receptor sites (Bos taurus, UniProt Q95136); assay: D-1 receptor binding, displacement of 3H-SCH 23390 in calf striatal membranes
T1 construct: Fresh calf brain striatal tissue is homogenized; from tissue; host or cells: calf brain striatum, membrane homogenate
Description: (§2) Furthermore the compound of formula I binds to dopamine receptors as characterised by the displacement of ^3 H-ligands from their respective binding sites in the homogenates of brain tissue.
The affinity to D-1 receptor sites [cf. W. Billard et al., Life Sci. 35, 1885-1893 (1984)] using ^3 H-(R)-(+)-8-chloro-7-hydroxy-3-methyl-5-phenyl-2,3,4,5-tetrahydro-1H-3-benzazepine (^3 H-SCH 23390) as ligand is determined as follows:
(§3) Fresh calf brain striatal tissue is homogenized in a 20 fold volume of Tris-HCl buffer (50 mM, pH 7.4 at 25° C.) using a Polytron tissue homogenizer. The homogenate is centrifuged for 10 minutes at 50,000 g (4° C.) and the supernatant discarded. The pellets are resuspended in the same buffer as before. The suspension is incubated for 20 minutes at 37° C. and then recentrifuged as before. The resulting pellets are stored frozen at -20° until their use in the binding assay. For the binding assay the pellets are resuspended in Tris-HCl buffer (50 mM, pH 7.4 at 37° C., containing 120 mM NaCl) in such a way that the final volume of 2 ml contains membranes corresponding to approximately 5 mg original tissue weight. ^3 H-SCH 23390 is added to give a final concentration of 0.1 nM. The assays for the determination of nonspecific binding additionally contain 1 μM unlabelled SCH 23390. […] The filters are monitored for radioactivity through liquid scintillation counting. […]

[5] = tested on: catalepsy; assay: Cataleptogenic activity in rats; assay type: in vivo, rat (Sprague-Dawley); details: p.o.
Description: (§4) (Drug Res.) 21, 252-255 (1971). In this test groups of 4-8 rats (120-170 g, Sprague-Dawley, females and males, Suddeutsche Tierfarm, Tuttlingen, West Germany) receive the test substance orally. At specified times after treatment the catalepsy of each rat is estimated by placing the forepaws on a 7 cm high block. The time for which the animal remains in this unnatural position is measured up to a maximum of 45 seconds. The threshold dose is the final dose, which still causes a catalepsy-median of >10 seconds. The compound of formula I has a threshold dose of 5 mg/kg p.o. determined during an 8 hour measurement period. This is a dose which is at least 25 times higher than that required to antagonize apomorphine induced gnawing.

[6] = Cataleptogenic activity in rats; assay type: in vivo, rat (Sprague-Dawley); details: rat, in vivo, po, read-out: ratio of catalepsy threshold dose to dose required to antagonize apomorphine induced gnawing
Description: as §4

[7] = tested on: rats with an unilateral 6-OHDA (6-hydroxydopamine) induced lesion of the substantia nigra; assay: Rotational behaviour in rats with unilateral 6-OHDA induced lesion of the substantia nigra (Ungerstedt rat); assay type: in vivo
Source text: For instance, the compound of formula I induces in rats with an unilateral 6-OHDA (6-hydroxydopamine) induced lesion of the substantia nigra [i.e. Ungerstedt rat, c.f.

[8] = molecular target: T2, D-2 receptor sites (Bos taurus, UniProt P20288); assay: D-2 receptor binding, 3H-spiperone binding assay in calf striatal membranes
T2 construct: Calf striatal membranes are prepared as described above; from tissue; host or cells: calf brain striatum, membrane homogenate
Description: as §2
as §3, with “23390. The test compound is added to give 5 to 9 different concentrations.” for “23390.”
The high affinity of the compound for D-2 receptor sites may be determined in the ^3 H-spiperone binding assay [cf. […]

[9] = tested on: serum prolactin levels; set-up: species or system rat (male Sprague-Dawley); details: rat, in vivo
Description: The test is performed as follows:
Male rats (120-140 g, Sprague-Dawley, Suddeutsche Tierfarm, Tuttlingen, West Germany) are maintained on a 12:12 light dark cycle (lights on 06.00, off 18.00 hrs). On the evening before the experiment, animals are marked for identification purposes and caged in groups of 4 into makrolon (type 3) cages. The next morning, the rats in each group receive 10 mg/kg p.o. of the test drug or placebo (normal saline solution+2 drops HCl) 2, 4, 8, 16 or 24 hours before they are killed by decapitation. Blood samples are collected in plastic tubes, centrifuged to obtain the serum, which is then stored at -20° C. until assayed for prolactin. Prolactin in the serum is measured by radioimmunoassay according to that of A. Hausler et al., J. Ultrastruct. Res. 64, 74 (1978).

[10] = tested on: serum prolactin levels; assay: Serum prolactin levels in male rats after subcutaneous administration (radioimmunoassay); assay type: in vivo, rat (male OFA); details: s.c., only at high doses
Description: E. Fluckiger et al., Experientia 34, 1330-1331 (1978)]:
Male OFA-rats of about 250 g body weight are brought to the experimental room 24 hours before the actual experiment. They are kept in appropriate cages by tens. After the experimental treatment they are kept singly. Food and water are freely available. Various doses of the compound or the vehicle are administered s.c. to groups of 5 animals. In this standard experiment the animals are decapitated 4 hours after treatment. The sera of the individual animals are deep frozen until assayed. Prolactin is then measured in aliquots by radioimmunoassay. The serum prolactin levels are expressed in ng/ml in terms of the prolactin standard NIAMD-RPrl-RP1.

T2 sequence (P20288 whole entry): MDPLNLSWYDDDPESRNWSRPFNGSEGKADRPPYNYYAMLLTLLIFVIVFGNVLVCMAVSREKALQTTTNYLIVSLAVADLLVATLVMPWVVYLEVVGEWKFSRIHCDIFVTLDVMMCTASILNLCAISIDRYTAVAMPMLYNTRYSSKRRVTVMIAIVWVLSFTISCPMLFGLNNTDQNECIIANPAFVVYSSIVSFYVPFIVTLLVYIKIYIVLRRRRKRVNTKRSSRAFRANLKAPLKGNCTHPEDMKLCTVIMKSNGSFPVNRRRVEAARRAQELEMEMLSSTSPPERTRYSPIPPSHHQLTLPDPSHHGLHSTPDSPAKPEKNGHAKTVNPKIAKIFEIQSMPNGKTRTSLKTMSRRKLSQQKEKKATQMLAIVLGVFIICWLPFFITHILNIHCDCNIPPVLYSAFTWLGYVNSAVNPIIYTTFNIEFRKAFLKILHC
T1 sequence (Q95136 whole entry): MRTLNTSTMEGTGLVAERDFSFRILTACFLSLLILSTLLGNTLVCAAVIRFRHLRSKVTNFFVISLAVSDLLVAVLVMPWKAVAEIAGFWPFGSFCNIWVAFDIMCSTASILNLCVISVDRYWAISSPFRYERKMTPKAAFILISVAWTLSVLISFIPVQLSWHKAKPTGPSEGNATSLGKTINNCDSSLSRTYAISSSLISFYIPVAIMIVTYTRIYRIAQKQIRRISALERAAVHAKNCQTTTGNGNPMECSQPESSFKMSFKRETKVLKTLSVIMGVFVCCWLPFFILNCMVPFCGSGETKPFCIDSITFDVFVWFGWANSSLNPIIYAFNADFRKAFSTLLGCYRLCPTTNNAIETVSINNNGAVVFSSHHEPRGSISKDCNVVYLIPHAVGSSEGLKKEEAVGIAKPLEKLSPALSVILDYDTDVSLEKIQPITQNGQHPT

Compound `O=C(CCCN1CCC(O)(c2ccc(Cl)cc2)CC1)c1ccc(F)cc1` [haloperidol, reference compound] has an ED100 ([1]; pretreatment time 6 hours) of 0.2 mg/kg.
In the case of `CCC(C)(CC)C(=O)N[C@H]1C[C@@H]2c3cccc4[nH]c(C)c(c34)C[C@H]2N(C)C1` [compound of formula I, N-[(5R,8S,10R)-2,6-dimethyl-ergoline-8-yl]-2-ethyl-2-methyl-butanamide], the NOAEL at 672 h [2] was 3 mg/kg/day, the ED100 ([1]; pretreatment time 3 hours) was 0.2 mg/kg and the ED100 ([1]; pretreatment time 6 hours) was 0.2 mg/kg. For the same compound, the MTD [3] was at least 100 mg/kg, the pIC50 [4] was about 7.30 and the “cataleptogenic activity (in words)” value [5] was “only a weak cataleptogenic activity”. The “threshold dose (catalepsy-median of >10 seconds)” value ([5]; 8 hour measurement period) was 5 mg/kg p.o, the selectivity ratio [6] was at least 25 and the “rotations contralateral to the lesion” value ([7]; 0.5 mg/kg p.o., within 7 hours) was 950 rotations. For the same compound, the “rotational behaviour (in words)” value ([7]; rats, relatively low doses, p.o.) was “long lasting rotational behaviour contralateral to the lesion”, the pIC50 [8] was about 7.70 and the “effect on prolactin levels, oral administration (overall)” value [9] was “only weak effects on prolactin levels”. For the same compound, the “effect on serum prolactin levels” value ([9]; po, 10 mg/kg) was “declines (24 hours) towards normal” and the “dose that influences serum prolactin levels” value [10] was at least 10 mg/kg.
